Where “and” joins values, the source holds several entries; their conditions need not be identical. Identical values can stand only once. Like-named read-outs stand apart in the source and are kept apart here.
Tests used:
229E Mpro = 229E Mpro (Human coronavirus 229E, UniProt P0C6X1); experiment: 229E Mpro enzymatic assay (standard methods, SARS-CoV2 Mpro assay given as exemplary); assay type: biochemical, human coronavirus (HCov) 229E
How it was run: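 Run by standard methods, with the SARS-CoV-2 Mpro protocol given as the model: E. coli-expressed C-His6 protease at 25 nM and substrate at 25 μM (Km 13.5 μM). Buffer pH 7.3 with 5 mM TCEP and 0.1% BSA; % inhibition versus controls fitted to variable-slope log(inhibitor)-response for IC50.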

[1] = biological target: COVID-19 (nCoV-2019, SARS-CoV2) Mpro (Severe acute respiratory syndrome coronavirus 2, UniProt P0DTD1); experiment: COVID-19 (nCoV-2019, SARS-CoV2) Mpro enzymatic assay; assay type: biochemical; conditions: 25 μM substrate
HCov OC43 = experiment: HCoV OC43 cytopathic effect (CPE) assay, CellTiter Glo; assay type: cell-based, human coronavirus (HCov) OC43
[2] = Betacoronavirus 1, OC43, read-out: OC43 IC50 (uM) MEDIAN, median
[3] = 25 nM Mpro, read-out: COVID-19 Mpro IC50
[4] = read-out: OC43 IC50 (uM) MEDIAN, median

Chain of 229E Mpro (P0C6X1 2966-3267): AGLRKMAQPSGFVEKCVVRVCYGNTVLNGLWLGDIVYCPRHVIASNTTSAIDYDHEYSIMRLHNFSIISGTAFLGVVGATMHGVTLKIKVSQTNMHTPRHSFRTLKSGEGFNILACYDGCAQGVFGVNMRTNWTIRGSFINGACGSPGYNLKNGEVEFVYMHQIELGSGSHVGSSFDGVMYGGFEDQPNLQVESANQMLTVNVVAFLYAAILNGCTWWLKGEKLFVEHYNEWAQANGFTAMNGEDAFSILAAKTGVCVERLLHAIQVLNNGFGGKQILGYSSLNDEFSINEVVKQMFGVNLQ

| Compound | IC50 (HCov OC43; [2]) [µM] | EC50 (229E Mpro; 229E Mpro EC50) [µM] | IC50 [1, 3] | IC50 (HCov OC43; [4]) [µM] | further results |
| --- | --- | --- | --- | --- | --- |
| N#CN1C2CCC1(C(=O)N(c1ccc(S(F)(F)(F)(F)F)cc1)C(C(=O)NC1CCC(F)(F)CC1)c1cncc(F)c1)CC2 (stereo not shown) [Compound 1101, 7-cyano-N-[2-[(4,4-difluorocyclohexyl)amino]-1-(5-fluoro-3-pyridyl)-2-oxo-ethyl]-N-[4-(pentafluoro-λ6-sulfanyl)phenyl]-7-azabicyclo[2.2.1]heptane-1-carboxamide] | > 30 |  |  |  | EC50 (229E Mpro; read-out: 229E Mpro EC50): 2 to 10 µM; IC50 ([1]; COVID-19 Mpro IC50, 25 nM Mpro): > 30 µM |
| CC(C)(C)c1ccc(N(C(=O)[C@H]2CCCN2C#N)C(C(=O)NCc2ccccn2)c2cccnc2)cc1 (stereo partly shown) [Compound 443] | 10 to 30 | < 2 | 2 to 10 µM |  |  |
| CC(C)(C#N)C(=O)N(c1ccc(S(F)(F)(F)(F)F)cc1)C(C(=O)NC1CCC(F)(F)CC1)c1cncc(F)c1 (single isomer, unassigned) [Compound 1316 Isomer 1, 2-cyano-N-[2-[(4,4-difluorocyclohexyl)amino]-1-(5-fluoro-3-pyridyl)-2-oxo-ethyl]-2-methyl-N-[4-(pentafluoro-λ6-sulfanyl)phenyl]propanamide] | > 30 | 10 to 30 | > 30 µM |  |  |
| CC(C)(C)c1ccc(N(C(=O)C2CCC(F)(F)CN2C#N)C(C(=O)NC2CCCCC2)c2cccnc2)cc1 (single isomer, unassigned) [885 Isomer 2, N-(4-(tert-butyl)phenyl)-1-cyano-N-(2-(cyclohexylamino)-2-oxo-1-(pyridin-3-yl)ethyl)-5,5-difluoropiperidine-2-carboxamide] |  | < 2 | < 2 µM | 2 to 10 |  |
| CO[C@@H]1C[C@H](C(=O)N(c2ccc(S(F)(F)(F)(F)F)cc2)C(C(=O)N2CC3(COC3)C2)c2cccnc2)N(C#N)C1 (single isomer, unassigned) [1171 Isomer 1] | 2 to 10 | < 2 | 10 to 30 µM and < 2 µM | < 2 |  |
| [2H]C(C(=O)NC1CCOCC1)(c1cnccn1)N(C(=O)[C@H]1C[C@@](C)(O)CN1C#N)c1ccc(S(F)(F)(F)(F)F)cc1 (stereo partly drawn) [Compound 1305, (2R,4R)-1-cyano-N-[1-deuterio-2-oxo-1-pyrazin-2-yl-2-(tetrahydropyran-4-ylamino)ethyl]-4-hydroxy-4-methyl-N-[4-(pentafluoro-λ^6-sulfanyl)phenyl]pyrrolidine-2-carboxamide] | > 30 | > 30 | > 30 µM |  |  |
| CC(C)(C)c1ccc(N(C(=O)C2CCC(F)(F)CN2C#N)C(C(=O)NC2CCCCC2)c2cccnc2)cc1 (single isomer, unassigned) [885 Isomer 1, N-(4-(tert-butyl)phenyl)-1-cyano-N-(2-(cyclohexylamino)-2-oxo-1-(pyridin-3-yl)ethyl)-5,5-difluoropiperidine-2-carboxamide] |  | 10 to 30 | > 30 µM | > 30 |  |
| CC(C)(C)c1ccc(N(C(=O)[C@H]2[C@H](F)CCN2C#N)C(C(=O)NC2CCC(F)(F)CC2)c2cncc(F)c2)cc1 (single isomer, unassigned) [1212 Isomer 1] | < 2 | < 2 | < 2 µM |  |  |
| N#CN1CC(=O)NC[C@@H]1C(=O)N(c1ccc(S(F)(F)(F)(F)F)cc1)C(C(=O)NC1CCOCC1)c1cccnc1 (stereo partly shown) [Compound 811, 1-cyano-5-oxo-N-[2-oxo-1-(3-pyridyl)-2-(tetrahydropyran-4-ylamino)ethyl]-N-[4-(pentafluoro-λ^6-sulfanyl)phenyl]piperazine-2-carboxamide] | < 2 | < 2 | < 2 µM |  |  |
| CC(C)(C)c1ccc(N(C(=O)[C@H]2C[C@@H](O)CN2C#N)C(C(=O)NC2CCCCC2)c2cncc(Cl)c2)cc1 (single isomer, unassigned) [675 Isomer 2] |  |  | 2 to 10 µM | 2 to 10 | EC50 (229E Mpro; read-out: 229E Mpro EC50): < 2 µM |
| CN1CN(C(=O)C(c2cccnc2)N(C(=O)[C@H]2CCCN2C#N)c2ccc(C(C)(C)C)cc2)CC1=O (stereo partly drawn) [Compound 962, (2R)—N-(4-(tert-butyl)phenyl)-1-cyano-N-(2-(3-methyl-4-oxoimidazolidin-1-yl)-2-oxo-1-(pyridin-3-yl)ethyl)pyrrolidine-2-carboxamide] | 10 to 30 | 2 to 10 | 10 to 30 µM |  |  |
| CN1CC(C(=O)N(c2ccc(S(F)(F)(F)(F)F)cc2)C(C(=O)NC2CCC(F)(F)CC2)c2cncc(F)c2)N(C#N)CC1=O (single isomer, unassigned) [Compound 1161 Isomer 1, 1-cyano-N-[2-[(4,4-difluorocyclohexyl)amino]-1-(5-fluoro-3-pyridyl)-2-oxo-ethyl]-4-methyl-5-oxo-N-[4-(pentafluoro-λ6-sulfanyl)phenyl]piperazine-2-carboxamide] |  | < 2 | < 2 µM |  | IC50 (HCov OC43; read-out: OC43 IC50 (uM) MEDIAN, median, listed as 1161 Isomer 1): < 2 µM |
| CO[C@@H]1C[C@H](C(=O)N(c2ccc(S(F)(F)(F)(F)F)cc2)C(C(=O)NCCc2cccc(F)c2)c2cccnc2)N(C#N)C1 (single isomer, unassigned) [1197 Isomer 2] |  |  | 2 to 10 µM | 2 to 10 | EC50 (229E Mpro; read-out: 229E Mpro EC50): < 2 µM |
| CC(C)(C)c1ccc(N(C(=O)[C@H]2CCCN2C#N)C(C(=O)NC2CCCCC2)c2cncc(F)c2)cc1 (single isomer, unassigned) [475 Isomer 2] |  | 2 to 10 | 10 to 30 µM | 10 to 30 |  |
| CC1(C)CN(C#N)[C@@H](C(=O)N(c2ccc(C(C)(C)C)cc2)C(C(=O)NC2CCOCC2)c2cccnc2)CO1 (single isomer, unassigned) [1141 Isomer 4] |  | < 2 | 10 to 30 µM | 10 to 30 |  |
| CC(C)(C)c1ccc(N(C(=O)[C@H]2CC(F)(F)CN2C#N)C(C(=O)NC2CCCCC2)c2cccnc2)cc1 (single isomer, unassigned) [Compound 876 Isomer 2] |  |  | 10 to 30 µM |  | EC50 (229E Mpro; read-out: 229E Mpro EC50): < 2 µM; IC50 (HCov OC43; read-out: OC43 IC50 (uM) MEDIAN, median, listed as 876 Isomer 2): > 30 µM |
| CO[C@@H]1C[C@H](C(=O)N(c2ccc(S(F)(F)(F)(F)F)cc2)C(C(=O)NCCc2cccc(F)c2)c2cccnc2)N(C#N)C1 (single isomer, unassigned) [1197 Isomer 1] | < 2 | < 2 | < 2 µM |  |  |
| CO[C@@H]1C[C@H](C(=O)N(c2ccc(S(F)(F)(F)(F)F)cc2)C(C(=O)NC(C)C2CCCCN2C(=O)OC(C)(C)C)c2cccnc2)N(C#N)C1 (single isomer, unassigned) [1303 Isomer 3.2] |  | 10 to 30 | > 30 µM | > 30 |  |
| C[C@H](NC(=O)C(c1cncc(F)c1)N(C(=O)[C@H]1C[C@@](C)(O)CN1C#N)c1ccc(-c2ccccc2)cc1)c1ccccc1 (single isomer, unassigned) [1345 Isomer 2] |  | 10 to 30 | 2 to 10 µM | 10 to 30 |  |
| CO[C@@H]1C[C@H](C(=O)N(c2ccc(C(C)(C)C)cc2)C(C)(C(=O)NC2CCC(F)(F)CC2)c2cccnc2)N(C#N)C1 (single isomer, unassigned) [1232 Isomer 2] |  | < 2 | < 2 µM | < 2 |  |
| N#CN1CC(=O)NCC1C(=O)N(c1ccc(S(F)(F)(F)(F)F)cc1)C(C(=O)NC1CCC(F)(F)CC1)c1cncc(F)c1 (single isomer, unassigned) [Compound 1160 Isomer 4, 1-cyano-N-[2-[(4,4-difluorocyclohexyl)amino]-1-(5-fluoro-3-pyridyl)-2-oxo-ethyl]-5-oxo-N-[4-(pentafluoro-λ^6-sulfanyl)phenyl]piperazine-2-carboxamide] |  | < 2 | 2 to 10 µM |  | IC50 (HCov OC43; read-out: OC43 IC50 (uM) MEDIAN, median, listed as 1160 Isomer 4): 2 to 10 µM |
| CC(C)(C#N)C(=O)N(c1ccc(S(F)(F)(F)(F)F)cc1)C(C(=O)NC1CCC(F)(F)CC1)c1cncc(F)c1 (single isomer, unassigned) [Compound 1316 Isomer 2, 2-Cyano-N-[2-[(4,4-difluorocyclohexyl)amino]-1-(5-fluoro-3-pyridyl)-2-oxo-ethyl]-2-methyl-N-[4-(pentafluoro-λ6-sulfanyl)phenyl]propanamide] |  | > 30 | > 30 µM | > 30 |  |
| CN(C)CCNC(=O)C(c1cccnc1)N(C(=O)[C@H]1CCCN1C#N)c1ccc(C(C)(C)C)cc1 (single isomer, unassigned) [Compound 435 Isomer 2] |  |  | 10 to 30 µM |  | EC50 (229E Mpro; read-out: 229E Mpro EC50): < 2 µM; IC50 (HCov OC43; read-out: OC43 IC50 (uM) MEDIAN, median, listed as 435 Isomer 2): 10 to 30 µM |
| CC(C)(C)c1ccc(N(C(=O)[C@H]2[C@H](F)CCN2C#N)C(C(=O)NC2CCCCC2)c2cccnc2)cc1 (single isomer, unassigned) [Compound 910 Isomer 2] |  |  | 10 to 30 µM | 2 to 10 | EC50 (229E Mpro; read-out: 229E Mpro EC50): < 2 µM |
| N#CN1CCOC[C@@H]1C(=O)N(c1ccc(S(F)(F)(F)(F)F)cc1)C(C(=O)NC1CCC(F)(F)CC1)c1cccnc1 (stereo partly drawn) [Compound 1315, (3R)-4-cyano-N-[2-[(4,4-difluorocyclohexyl)amino]-2-oxo-1-(3-pyridyl)ethyl]-N-[4-(pentafluoro-λ6-sulfanyl)phenyl]morpholine-3-carboxamide] | < 2 | < 2 | < 2 µM |  |  |
| N#C[C@H]1C[C@H](C(=O)N(c2ccc(S(F)(F)(F)(F)F)cc2)C(C(=O)NC2CCC(F)(F)CC2)c2cncc(F)c2)N(C#N)C1 (single isomer, unassigned) [1100 Isomer 2] |  |  | < 2 µM | < 2 | EC50 (229E Mpro; read-out: 229E Mpro EC50): < 2 µM |

Reference: US20220380347A1, “INHIBITORS OF CYSTEINE PROTEASES AND METHODS OF USE THEREOF” (Pardes Biosciences, Inc., priority 2020, published 2022)
